Earlier results as cited in patent US20140171495A1, “STABLE PHARMACEUTICAL FORMULATION OF CABAZITAXEL” (Yung Shin Pharm.Ind. Co., Ltd., priority 2012, published 2014).

For CO[C@H]1C(=O)[C@]2(C)[C@@H](OC)C[C@H]3OC[C@@]3(OC(C)=O)[C@H]2[C@H](OC(=O)c2ccccc2)[C@]2(O)C[C@H](OC(=O)[C@H](O)[C@@H](NC(=O)OC(C)(C)C)c3ccccc3)C(C)=C1C2(C)C [Cabazitaxel, (2α,5β,7β,10β,13α)-4-acetoxy-13-({(2R,3S)-3[(tertbutoxycarbonyl)amino]-2-hydroxy-3-phenylpropanoyl}oxy)-1-hydroxy-7,10-dimethoxy-9-oxo-5,20-epoxytax-11-en-2-yl benzoate-propan-2-one(1:1)], the solubility in alcohol (alcohol) is listed as “soluble” and the solubility in water (water) is listed as “practically insoluble”.
